Counter-ions that a name gives are not always drawn.
molecular target: Factor D (Homo sapiens (Human), UniProt P00746); assay: biochemical; type: biochemical; conditions: read-out: IC50
Sequence (P00746 26-253): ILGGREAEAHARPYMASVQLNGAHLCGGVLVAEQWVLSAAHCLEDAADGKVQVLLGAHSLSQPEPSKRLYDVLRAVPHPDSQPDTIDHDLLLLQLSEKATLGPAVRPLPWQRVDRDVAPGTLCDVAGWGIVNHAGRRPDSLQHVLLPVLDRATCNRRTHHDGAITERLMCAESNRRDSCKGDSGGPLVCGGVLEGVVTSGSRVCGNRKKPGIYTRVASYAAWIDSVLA

Row | SMILES | IC50 [nM]
1 | CC(=O)c1nn(CC(=O)N2C[C@@H]3C[C@@H]3[C@H]2C(=O)NCc2cccc(Cl)c2F)c2cnc(C)cc12 [Example 625, (1S,2S,5R)-3-[2-(3-Acetyl-5-methyl-pyrazolo[3,4-c]pyridin-1-yl)-acetyl]-3-aza-bicyclo [3.1.0]hexane-2-carboxylic acid 3-chloro-2-fluoro-benzylamide] | 19
2 | CC(=O)c1nn(CC(=O)N2C[C@H](F)C[C@H]2C(=O)NCc2cccc(Cl)c2F)c2cnc(C)cc12 [Example 626, (2S,4R)-1-[2-(3-Acetyl-5-methyl-pyrazolo[3,4-c]pyridin-1-yl)-acetyl]-4-fluoro-pyrrolidine-2-carboxylic acid 3-chloro-2-fluoro-benzylamide] | 36
3 | CC(=O)c1nn(CC(=O)N2[C@@H]3C[C@@H]3C[C@H]2C(=O)NCc2cccc(Cl)c2F)c2cnccc12 [Example 627, (1R,3S,5R)-2-[2-(3-Acetyl-pyrazolo[3,4-c]pyridin-1-yl)-acetyl]-2-aza-bicyclo [3.1.0]hexane-3-carboxylic acid 3-chloro-2-fluoro-benzylamide] | 16
4 | CO[C@H]1[C@@H](C(=O)Nc2cccc(OC(F)(F)F)c2F)N(C(=O)Cn2nc(C(N)=O)c3ccccc32)C[C@@H]1F [Example 628, 1-{2-[(2S,3S,4S)-4-Fluoro-2-(2-fluoro-3-trifluoromethoxy-phenylcarbamoyl)-3-methoxy-pyrrolidin-1-yl]-2-oxo-ethyl}-1H-indazole-3-carboxylic acid amide] | 38
5 | CO[C@H]1[C@@H](C(=O)Nc2cccc(OC(F)(F)F)c2F)N(C(=O)Cn2nc(C(N)=O)c3ccncc32)C[C@@H]1F [Example 629, 1-{2-[(2S,3S,4S)-4-Fluoro-2-(2-fluoro-3-trifluoromethoxy-phenylcarbamoyl)-3-methoxy-pyrrolidin-1-yl]-2-oxo-ethyl}-1H-pyrazolo[3,4-c]pyridine-3-carboxylic acid amide trifluoroacetate] | 17
6 | CO[C@H]1[C@@H](C(=O)NCc2cccc(Cl)c2F)N(C(=O)Cn2nc(C(C)=O)c3cnccc32)C[C@@H]1F [Example 630, (2S,3S,4S)-1-[2-(3-Acetyl-pyrazolo[4,3-c]pyridin-1-yl)-acetyl]-4-fluoro-3-methoxy-pyrrolidine-2-carboxylic acid 3-chloro-2-fluoro-benzylamide] | 36
7 | CO[C@H]1[C@@H](C(=O)NC2(c3cccc(Cl)c3F)CC2)N(C(=O)Cn2nc(C(C)=O)c3ccncc32)C[C@@H]1F [Example 631, (2S,3S,4S)-1-[2-(3-Acetyl-pyrazolo[3,4-c]pyridin-1-yl)-acetyl]-4-fluoro-3-methoxy-pyrrolidine-2-carboxylic acid [1-(3-chloro-2-fluoro-phenyl)-cyclopropyl]-amide] | 11
8 | COC(=O)c1ccc2c(C(C)=O)nn(CC(=O)N3[C@@H]4C[C@@H]4C[C@H]3C(=O)NCc3cccc(Cl)c3F)c2c1 [Example 632, 3-Acetyl-1-{2-[(1R,3S,5R)-3-(3-chloro-2-fluoro-benzylcarbamoyl)-2-aza-bicyclo [3.1.0]hex-2-yl]-2-oxo-ethyl}-1H-indazole-6-carboxylic acid methyl ester] | 18
9 | CC(=O)c1nn(CC(=O)N2[C@@H]3C[C@@H]3C[C@H]2C(=O)NC2(c3cccc(Cl)c3F)COC2)c2ncccc12 [Example 633, (1R,3S,5R)-2-[2-(3-Acetyl-pyrazolo[3,4-b]pyridin-1-yl)-acetyl]-2-aza-bicyclo [3.1.0]hexane-3-carboxylic acid [3-(3-chloro-2-fluoro-phenyl)-oxetan-3-yl]-amide] | 55
10 | CC(=O)c1cn(CC(=O)N2C[C@H](F)[C@@H](OCCN(C)C)[C@H]2C(=O)NCc2cccc(Cl)c2F)c2ccccc12 [Example 634, (2S,3S,4S)-1-[2-(3-Acetyl-indol-1-yl)-acetyl]-3-(2-dimethylamino-ethoxy)-4-fluoro-pyrrolidine-2-carboxylic acid 3-chloro-2-fluoro-benzylamide formate] | 53
11 | CC(=O)c1nn(CC(=O)N2C[C@H](F)[C@@H](O)[C@H]2C(=O)NC2(c3cccc(Cl)c3F)CC2)c2cnccc12 [Example 635, (2S,3S,4S)-1-[2-(3-Acetyl-pyrazolo[3,4-c]pyridin-1-yl)-acetyl]-4-fluoro-3-hydroxy-pyrrolidine-2-carboxylic acid [1-(3-chloro-2-fluoro-phenyl)-cyclopropyl]-amide formate] | 18
12 | CO[C@H]1[C@@H](C(=O)Nc2cccc(OC(F)(F)F)c2F)N(C(=O)Cn2nc(C(N)=O)c3cc(C)ncc32)C[C@@H]1F [Example 636, 1-{2-[(2S,3S,4S)-4-Fluoro-2-(2-fluoro-3-trifluoromethoxy-phenylcarbamoyl)-3-methoxy-pyrrolidin-1-yl]-2-oxo-ethyl}-5-methyl-1H-pyrazolo[3,4-c]pyridine-3-carboxylic acid amide triflate] | 13
13 | CCc1cc2c(C(N)=O)nn(CC(=O)N3C[C@H](F)[C@@H](OC)[C@H]3C(=O)Nc3cccc(OC(F)(F)F)c3F)c2cn1 [Example 637, 5-Ethyl-1-{2-[(2S,3S,4S)-4-fluoro-2-(2-fluoro-3-trifluoromethoxy-phenylcarbamoyl)-3-methoxy-pyrrolidin-1-yl]-2-oxo-ethyl}-1H-pyrazolo[3,4-c]pyridine-3-carboxylic acid amide triflate] | 9
14 | CO[C@H]1[C@@H](C(=O)Nc2cccc(OC(F)(F)F)c2F)N(C(=O)Cn2nc(C(C)=O)c3cc(OCc4ncccn4)ccc32)C[C@@H]1F [Example 638, (2S,3S,4S)-1-{2-[3-Acetyl-5-(pyrimidin-2-ylmethoxy)-indazol-1-yl]-acetyl}-4-fluoro-3-methoxy-pyrrolidine-2-carboxylic acid (2-fluoro-3-trifluoromethoxy-phenyl)-amide] | 5
15 | CC(=O)c1nn(CC(=O)N2[C@@H]3C[C@@H]3C[C@H]2C(=O)NCc2cccc(Cl)c2F)c2cc(C(=O)O)ccc12 [Example 639, 3-Acetyl-1-{2-[(1R,3S,5R)-3-(3-chloro-2-fluoro-benzylcarbamoyl)-2-aza-bicyclo[3.1.0]hex-2-yl]-2-oxo-ethyl}-1H-indazole-6-carboxylic acid] | 62
16 | CO[C@H]1[C@@H](C(=O)NCc2cccc(Cl)c2F)N(C(=O)Cn2nc(C(C)=O)c3ccc(C(=O)O)cc32)C[C@@H]1F [Example 640, 3-Acetyl-1-{2-[(2S,3S,4S)-2-(3-chloro-2-fluoro-benzylcarbamoyl)-4-fluoro-3-methoxy-pyrrolidin-1-yl]-2-oxo-ethyl}-1H-indazole-6-carboxylic acid] | 8
17 | CC(=O)c1cn(CC(=O)N2[C@@H]3C[C@@H]3C[C@H]2C(=O)N[C@H](C)c2cccc(Cl)c2F)c2cnccc12 [Example 641, (1R,3S,5R)-2-[2-(3-Acetyl-pyrrolo[2,3-c]pyridin-1-yl)-acetyl]-2-aza-bicyclo[3.1.0]hexane-3-carboxylic acid [(R)-1-(3-chloro-2-fluoro-phenyl)-ethyl]-amide] | 32
18 | CC(=O)c1nn(CC(=O)N2[C@@H]3C[C@@H]3C[C@H]2C(=O)N[C@H](CCN(C)C)c2cccc(Cl)c2F)c2ccccc12 [Example 642, (1R,3S,5R)-2-[2-(3-Acetyl-indazol-1-yl)-acetyl]-2-aza-bicyclo[3.1.0]hexane-3-carboxylic acid [(R)-1-(3-chloro-2-fluoro-phenyl)-3-dimethylamino-propyl]-amide] | 15
19 | CO[C@H]1[C@@H](C(=O)N[C@H](C)c2cccc(Cl)c2F)N(C(=O)Cn2nc(C(N)=O)c3cccnc32)C[C@@H]1F [Example 643, 1-(2-{(2S,3S,4S)-2-[(R)-1-(3-Chloro-2-fluoro-phenyl)-ethylcarbamoyl]-4-fluoro-3-methoxy-pyrrolidin-1-yl}-2-oxo-ethyl)-1H-pyrazolo[3,4-b]pyridine-3-carboxylic acid amide] | 25
20 | CC(=O)c1nc(CC(=O)N2[C@@H]3C[C@@H]3C[C@H]2C(=O)N[C@H](CO)c2cccc(Cl)c2F)n2ccccc12 [Example 644, (1R,3S,5R)-2-[2-(1-Acetyl-imidazo[1,5-a]pyridin-3-yl)-acetyl]-2-aza-bicyclo [3.1.0]hexane-3-carboxylic acid [(S)-1-(3-chloro-2-fluoro-phenyl)-2-hydroxy-ethyl]-amide] | 79
21 | CCC(=O)c1cn(CC(=O)N2[C@@H]3C[C@@H]3C[C@H]2C(=O)NCc2cccc(Cl)c2F)c2cnccc12 [Example 645, (1R,3S,5R)-2-[2-(3-Propionyl-pyrrolo[2,3-c]pyridin-1-yl)-acetyl]-2-aza-bicyclo [3.1.0]hexane-3-carboxylic acid 3-chloro-2-fluoro-benzylamide] | 132
22 | CC(=O)c1cn(CC(=O)N2[C@@H]3C[C@@H]3C[C@H]2C(=O)NCc2cccc(Cl)c2F)c2cnc(C)cc12 [Example 646, (1R,3S,5R)-2-[2-(3-Acetyl-5-methyl-pyrrolo[2,3-c]pyridin-1-yl)-acetyl]-2-aza-bicyclo [3.1.0]hexane-3-carboxylic acid 3-chloro-2-fluoro-benzylamide] | 12
23 | COc1cc2c(C(C)=O)nn(CC(=O)N3[C@@H]4C[C@@H]4C[C@H]3C(=O)NCc3cccc(Cl)c3F)c2cc1OC [Example 647, (1R,3S,5R)-2-[2-(3-Acetyl-5,6-dimethoxy-indazol-1-yl)-acetyl]-2-aza-bicyclo [3.1.0]hexane-3-carboxylic acid 3-chloro-2-fluoro-benzylamide] | 16
24 | CC(=O)c1cn(CC(=O)N2[C@@H]3C[C@@H]3C[C@H]2C(=O)NCc2cccc(Cl)c2F)c2ncncc12 [Example 649, (1R,3S,5R)-2-[2-(5-Acetyl-pyrrolo[2,3-d]pyrimidin-7-yl)-acetyl]-2-aza-bicyclo [3.1.0]hexane-3-carboxylic acid 3-chloro-2-fluoro-benzylamide] | 441
25 | NC(=O)c1nn(CC(=O)N2[C@@H]3C[C@@H]3C[C@H]2C(=O)NCc2cccc(Cl)c2F)c2ccncc12 [Example 650, 1-{2-[(1R,3S,5R)-3-(3-Chloro-2-fluoro-benzylcarbamoyl)-2-aza-bicyclo[3.1.0]hex-2-yl]-2-oxo-ethyl}-1H-pyrazolo[4,3-c]pyridine-3-carboxylic acid amide] | 22
